Results as given in patent US11981671B2, “Bicyclic pyrazolyl amines as CDK2 inhibitors” (Incyte Corporation, priority 2021, dated 2024).

Molecular target: CDK2/Cyclin E1 (Homo sapiens (Human), UniProt P24941)
Experiment: CDK2/Cyclin E1 HTRF enzyme activity assay
Type: biochemical
Details: 1 mM ATP; CDK2/Cyclin E1 0.25 nM; 60 minutes at room temperature
Method: Example A. CDK2/Cyclin E1 HTRF Enzyme Activity Assay
CDK2/Cyclin E1 enzyme activity assays utilize full-length human CDK2 co-expressed as N-terminal GST-tagged protein with FLAG-Cyclin E1 in a baculovirus expression system (Carna Product Number 04-165). Assays were conducted in white 384-well polystyrene plates in a final reaction volume of 8 μL. CDK2/Cyclin E1 (0.25 nM) was incubated with the compounds of the Examples (40 nL serially diluted in DMSO) in the presence of ATP (50 μM or 1 mM) and 50 nM ULight™-labeled eIF4E-binding protein 1 (THR37/46) peptide (PerkinElmer) in assay buffer (containing 50 mM HEPES pH 7.5, 1 mM EGTA, 10 mM MgCl2, 2 mM DTT, 0.05 mg/mL BSA, and 0.01% Tween 20) for 60 minutes at room temperature. The reactions were stopped by the addition of EDTA and Europium-labeled anti-phospho-4E-BP1 antibody (PerkinElmer), for a final concentration of 15 mM and 1.5 nM, respectively. HTRF signals were read after 1 hour at room temperature on a PHERAstar FS plate reader (BMG Labtech). Data was analyzed with IDBS XLFit and GraphPad Prism 5.0 software using a three or four parameter dose response curve to determine IC50 for each compound.

| Structure (SMILES) | IC50 [µM] |
| --- | --- |
| Cc1cc(-c2c(-c3cn[nH]c3)ccn3nc(Nc4ccnc(C)c4C)nc23)c(F)cn1 [Example 6, N-(2,3-Dimethylpyridin-4-yl)-8-(5-fluoro-2-methylpyridin-4-yl)-7-(1H-pyrazol-4-yl)-[1,2,4]triazolo[1,5-a]pyridin-2-amine] | ≤ 0.01 |
| Cc1cc(-c2c(-c3cn[nH]c3)ccn3nc(Nc4ccnc5ccccc45)nc23)c(F)cc1C#N [Example 7, 4-(7-(1H-Pyrazol-4-yl)-2-(quinolin-4-ylamino)-[1,2,4]triazolo[1,5-a]pyridin-8-yl)-5-fluoro-2-methylbenzonitrile] | ≤ 0.01 |
| Cc1c(Nc2nc3c(OC(C)C)c(-c4cn[nH]c4)ncn3n2)ccnc1CN(C)C [Example 8, N-(2-((Dimethylamino)methyl)-3-methylpyridin-4-yl)-8-isopropoxy-7-(1H-pyrazol-4-yl)-[1,2,4]triazolo[1,5-c]pyrimidin-2-amine] | ≤ 0.01 |
| Cc1c(Nc2nc3c(OC(C)C)c(-c4cn[nH]c4)ncn3n2)ccnc1CO [Example 9, (4-((8-Isopropoxy-7-(1H-pyrazol-4-yl)-[1,2,4]triazolo[1,5-c]pyrimidin-2-yl)amino)-3-methylpyridin-2-yl)methanol] | ≤ 0.01 |
| Cc1nccc(Nc2nc3c(OC(C)C)c(-c4cn[nH]c4)ncn3n2)c1C [Example 10, N-(2,3-Dimethylpyridin-4-yl)-8-isopropoxy-7-(1H-pyrazol-4-yl)-[1,2,4]triazolo[1,5-c]pyrimidin-2-amine] | ≤ 0.01 |
| Cc1c(Nc2nc3c(OC(C)C)c(-c4cn[nH]c4)ncn3n2)ccc2nccn12 [Example 11, 8-Isopropoxy-N-(5-methylimidazo[1,2-a]pyridin-6-yl)-7-(1H-pyrazol-4-yl)-[1,2,4]triazolo[1,5-c]pyrimidin-2-amine] | ≤ 0.01 |
| CC(C)Oc1c(-c2cn[nH]c2)ncn2nc(Nc3ccc(S(C)(=O)=O)cc3F)nc12 [Example 12, N-(2-Fluoro-4-(methylsulfonyl)phenyl)-8-isopropoxy-7-(1H-pyrazol-4-yl)-[1,2,4]triazolo[1,5-c]pyrimidin-2-amine] | ≤ 0.01 |

Next, values leading:

| IC50 [µM] | Structure (SMILES) |
| --- | --- |
| ≤ 0.01 | Cc1nccc(Nc2nc3c(-c4ccc5c(c4)oc(=O)n5C)c(-c4cn[nH]c4)ccn3n2)c1C [Example 1, 6-(2-((2,3-Dimethylpyridin-4-yl)amino)-7-(1H-pyrazol-4-yl)-[1,2,4]triazolo[1,5-a]pyridin-8-yl)-3-methylbenzo[d]oxazol-2(3H)-one] |
| ≤ 0.01 | Cc1nccc(Nc2nc3c(-c4cc(C#N)ccc4F)c(-c4cn[nH]c4)ccn3n2)c1C [Example 2, 3-(2-((2,3-Dimethylpyridin-4-yl)amino)-7-(1H-pyrazol-4-yl)-[1,2,4]triazolo[1,5-a]pyridin-8-yl)-4-fluorobenzonitrile] |
| ≤ 0.01 | Cc1nccc(Nc2nc3c(-c4ccc5c(cnn5C)c4)c(-c4cn[nH]c4)ccn3n2)c1C [Example 3, N-(2,3-Dimethylpyridin-4-yl)-8-(1-methyl-1H-indazol-5-yl)-7-(1H-pyrazol-4-yl)-[1,2,4]triazolo[1,5-a]pyridin-2-amine] |
| ≤ 0.01 | Cc1nccc(Nc2nc3c(-c4ccc(CO)cc4F)c(-c4cn[nH]c4)ccn3n2)c1C [Example 4, (4-(2-((2,3-Dimethylpyridin-4-yl)amino)-7-(1H-pyrazol-4-yl)-[1,2,4]triazolo[1,5-a]pyridin-8-yl)-3-fluorophenyl)methanol] |
| ≤ 0.01 | Cc1nccc(Nc2nc3c(-c4ccc(CN5CCCC5)c(F)c4)c(-c4cn[nH]c4)ccn3n2)c1C [Example 5, N-(2,3-Dimethylpyridin-4-yl)-8-(3-fluoro-4-(pyrrolidin-1-ylmethyl)phenyl)-7-(1H-pyrazol-4-yl)-[1,2,4]triazolo[1,5-a]pyridin-2-amine] |
